Experimental data taken from patent US12589101B2, “Cyclodextrin protein drug conjugates” (Regeneron Pharmaceuticals, Inc., priority 2017, dated 2026).
In brackets after ≈: the same amount, converted by molar mass. Where two headings read alike, the source gives them in different places. Square brackets hold non-standard residues; d marks the D form. Peptide text beside a SMILES is read from it. * marks the point of attachment. Dolaproine = CO[C@@H]([C@@H]1CCCN1)[C@@H](C)C(=O)O; Dil = CC[C@H](C)[C@H](NC)[C@@H](CC(=O)O)OC; X1 = C[C@@H](N*)[C@@H](O)c1ccccc1; NMeV = CN[C@H](C(=O)O)C(C)C

What was measured:
[1] = Solubility of linker-payloads (LC-MS standard curve, saturated solution); format: physicochemical; conditions: aqueous with cosolvent or surfactant or cyclodextrin, thermodynamic from solid, in 10% DMSO/H2O; read-out: Solubility in other solvents
Human liver Cathepsin B = target: T1, Human liver Cathepsin B (Homo sapiens, UniProt P07858); assay: Cathepsin B cleavage assay, payload released (Example 73); format: biochemical; conditions: 37° C., 50 μM substrate, pH 5
T1 construct: Human liver Cathepsin B (Athens Research & Technology, Cat #16-12-030102); purchased Athens Research & Technology 16-12-030102; host or cells: human liver
Experimental: To determine the effect on the cleavage efficiency on a steroid or LXR agonist payload when a cyclodextrin moiety was added in the linker, a Cathepsin B cleavage assay was performed. For the assay, the linker-payload stock solution (10 mM of linker-payload in DMSO) was added into a solution of 100 mM NaOAc, 10 mM dithiothreitol, at pH5 to obtain a 50 μM substrate solution. Human liver Cathepsin B (Athens Research & Technology, Cat #16-12-030102) in 50 mM NaOAc, 1 mM EDTA, at pH 5, was added to the substrate solution. The Cathepsin B and substrate solution was mixed with and without 10 mM of a Cathepsin B inhibitor (CA074; APE Bio, Cat #A1926), and incubated at 37° C. for 4 hours. Following the 4 hour incubation, acetic acid and then acetonitrile were added to stop the reaction. The quenched samples then underwent centrifugation at 14,000 rpm. Aliquots of the resultant supernatants were then diluted with equal volume of water and analyzed by LC/MS to determine the amount of payload released. The stability and activity of Cathepsin B was confirmed by incubating with 200 μM fluorogenic substrate for Cathepsin B (Santa Cruz Biotechnology, Cat #207975) (fluorescence at excitation of 340 nm/emission of 425 nm).

[2] = Solubility of linker-payloads (LC-MS standard curve, saturated solution); format: physicochemical
Cathepsin B = Cathepsin B (Homo sapiens, UniProt P07858); assay: Cathepsin B cleavage rate of linker-payloads (Example 66); format: biochemical; conditions: for capB / CapB (%): Cathepsin B cleavage rate; for capB: Table 8A; for CapB (%): pH 5.0, 37° C.
Procedure, shortened: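 Linker-payloads (25 μM) incubated with human cathepsin B at 37° C in 0.1 M NaOAc/0.01 M DTT, pH 5.0, with or without CA074 inhibitor; cleavage followed by LC/MS. Enzyme activity checked with Z-RR-MNA substrate (200 μM final), fluorescence 340/425 nm, in pH 6.0 Na/K phosphate buffer.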

LXR = test system: T2, LXR; assay: THP1/LXR-Luc/Her2 bioassay (LXR activation, luciferase); format: cell-based; conditions: THP1/LXR-Luc/Her2 cells, 48-hour incubation
T2 construct: other: THP1/LXR-Luc/Her2 cells, 48-hour incubation, relative to free payload 1d; other: THP1/LXR-Luc/Her2 cells, 48-hour incubation; other: THP1/Her2/LXR-Luc cells; other: differentiated THP1/LXR-Luc cells, 48 hours; other: THP1/LXR-Luc cells, PMA
Experimental: To test the comparability of ADCs with and without CDs containing LXR agonists anti-HER2 Ab ADC with and without CD were tested for their ability to activate LXR in a THP1/LXR-Luc/Her2 bioassay. In the assay, either THP1/LXR-Luc cells or THP1/LXR-Luc/Her2 cells were seeded onto white 96 well plates at 30,000 cells/well in media containing RPMI supplemented with 10% FBS and pencillin/streptomycinin (complete media). Subsequently 3-fold serial dilutions of antibody drug conjugates, unconjugated antibodies, or free payloads were added to the cells at final concentration ranging from 100 nM to 0.01 nM. After a 48-hour incubation, luciferase activity was determined after the addition of One-Glo™ reagent (Promega, E6130) to each well of cells. Relative light units (RLUs) were measured on a Victor luminometer (PerkinElmer) and the EC50 values were determined using a four-parameter logistic equation over a 10-point dose response curve (GraphPad Prism).

SKBR3 cells = assay: SKBR3 cytotoxicity assay (CellTiter-Glo); format: cell-based
Experimental: To assess the comparability of ADCs with and without CDs containing cytotoxic payloads, a cytotoxicity assay used SKBR3 cells. SKBR3 cells have been commonly used to assess aHer2 ADC activity. An aPRLR ADC has been used as a control mAb ADC in the SKBR3 cytotoxicity assay. For the assay, in vitro cytotoxicity of anti-Her2 ADCs or PRLR ADCs were evaluated using the CellTiter-Glo Assay Kit (Promega, Cat #G7573), in which the quantity of ATP present is used to determine the number of viable cells in culture. For the assay, SKBR3 cells were seeded at 6000 cells/well on Nunclon white 96 well plates in complete growth medium and grown overnight at 37° C. in 5% CO2. For cell viability curves, 1:4 serially diluted ADCs or free payload MMAE were added to the cells at concentrations starting at 100 nM including a no treatment control and were then incubated for 5 days. After the 5-day incubation, cells were incubated at room temperature with 100 μL of CellTiter-Glo reagents for 5 minutes. Relative luminescence units (RLU) were determined on a Victor plate reader (PerkinElmer). The IC50 values were determined from a four-parameter logistic equation over a 10-point response curve (GraphPad Prism). All curves and EC50 values were corrected for payload equivalents. All IC50s are expressed in nM concentration and percentage of cells killed (% kill) is reported for the highest concentration tested.

[3] = water, thermodynamic from solid, Aq. Solubility (mg/mL)
[4] = water, thermodynamic from solid, Solubility
[5] = water, thermodynamic from solid, Table 8A, read-out: Solubility
[6] = water, thermodynamic from solid, aqueous, read-out: Aq. Solubility

Molecule `CCCC1O[C@@H]2C[C@H]3[C@@H]4CCC5=CC(=O)C=C[C@]5(C)[C@H]4[C@@H](O)C[C@]3(C)[C@]2(C(=O)COc2ccc(NC(=O)[C@H](C)NC(=O)[C@@H](NC(=O)[C@@H](CCCCNC(=O)COC3CCCCCc4c3nnn4CC3OC4OC5C(CO)OC(OC6C(CO)OC(OC7C(CO)OC(OC8C(CO)OC(OC9C(CO)OC(OC3C(O)C4O)C(O)C9O)C(O)C8O)C(O)C7O)C(O)C6O)C(O)C5O)NC(=O)CCOCCOCCOCCOCCNC(=O)CCC(=O)N3Cc4ccccc4C#Cc4ccccc43)C(C)C)cc2)O1` (stereo partly shown) [Ex46] has a solubility at 10 min [1] of 100 µg/mL (≈ 39.7 µM).
In the case of `CC(C)[C@H](NC(=O)CCOCCOCCOCCOCCNC(=O)CCC(=O)N1Cc2ccccc2C#Cc2ccccc21)C(=O)N[C@@H](C)C(=O)Nc1ccc2c(c1)[C@@]1(C)CCC[C@](C)(C(=O)NC(=O)[C@@]3(C)CCC[C@]4(C)c5cc(O)ccc5CC[C@@H]34)[C@@H]1CC2` [Ex48, 1-(4-{2-Azatricyclo[10.4.0.0^4,9]hexadeca-1(12),4(9),5,7,13,15-hexaen-10-yn-2-yl}-4-oxobutanamido)-N-[(1S)-1-{[(1 S)-1-{[(4bS,8S,8aR)-8-{[(1S,4aS,10aR)-6-hydroxy-1,4a-dimethyl-1,2,3,4,4a,9,10,10a-octahydrophenanthrene-1-carbonyl]carbamoyl}-4b,8-dimethyl-4b,5,6,7,8,8a,9,10-octahydrophenanthren-3-yl]carbamoyl}ethyl]carbamoyl}-2-methylpropyl]-3,6,9,12-tetraoxapentadecan-15-amide], the “Percent of payload released at 4 hrs” value (Human liver Cathepsin B) is reported as 13.6%, the Solubility ([2]; 10 min) is reported as <0.1 mg/ mL mg/mL and the solubility at 10 min [2, 3] is reported as < 100 µg/mL. The solubility at 10 min [2, 4] was < 100 µg/mL, the “Cathepsin B cleavage rate” value (Cathepsin B) was 62% and the capB (Cathepsin B) was 13.6%. The “CapB (%)” value (Cathepsin B) was “% (% ≤50 CapB (%))”.
In the case of `CC(C)[C@H](NC(=O)[C@@H](CCCCNC(=O)COC1CCCCCc2c1nnn2CC1OC2OC3C(CO)OC(OC4C(CO)OC(OC5C(CO)OC(OC6C(CO)OC(OC7C(CO)OC(OC1C(O)C2O)C(O)C7O)C(O)C6O)C(O)C5O)C(O)C4O)C(O)C3O)NC(=O)CCOCCOCCOCCOCCNC(=O)CCC(=O)N1Cc2ccccc2C#Cc2ccccc21)C(=O)N[C@@H](C)C(=O)Nc1ccc2c(c1)[C@@]1(C)CCC[C@](C)(C(=O)NC(=O)[C@@]3(C)CCC[C@]4(C)c5cc(O)ccc5CC[C@@H]34)[C@@H]1CC2` (stereo partly shown) [Ex49], the “Percent of payload released at 4 hrs” value (Human liver Cathepsin B) is reported as 38.5%, the “Concentration (mM) of saturated solution” value ([2]; 10 min) is reported as 0.019 mM and the Solubility ([2]; 10 min) is reported as 0.05 mg/ mL mg/mL. It also gave a solubility thermodynamic at 10 min ([2]; water, thermodynamic from solid) of 48 µg/mL (≈ 19 µM), a solubility at 10 min [2, 3] of 50 µg/mL (≈ 19.8 µM) and a solubility at 10 min [2, 4] of 50 µg/mL (≈ 19.8 µM). The capB (Cathepsin B) was 38.5% [1] and the “CapB (%)” value (Cathepsin B) was “% % (60< % % ≤70 CapB (%))”.
For `CCCC1O[C@@H]2C[C@H]3[C@@H]4C[C@H](F)C5=CC(=O)C=C[C@]5(C)[C@@]4(F)[C@@H](O)C[C@]3(C)[C@]2(C(=O)CNC(=O)OCc2ccc(NC(=O)[C@H](CCCNC(N)=O)NC(=O)[C@@H](NC(=O)CCOCCOCCOCCOCCNC(=O)CCC(=O)N3Cc4ccccc4C#Cc4ccccc43)C(C)C)cc2)O1` (stereo partly shown) [Ex58, DIBAC-suc-PEG4-vcPAB-1h], the “Percent of payload released at 4 hrs” value (Human liver Cathepsin B) was 7.5-17.2%, the solubility at 10 min [2, 5] was < 20 µg/mL and the solubility at 10 min [2, 6] was < 20 µg/mL. For the same molecule, the capB (Cathepsin B) was 20.8% and the “CapB (%)” value (Cathepsin B) was “% (% ≤50 CapB (%))”.
For `CCCC1O[C@@H]2C[C@H]3[C@@H]4C[C@H](F)C5=CC(=O)C=C[C@]5(C)[C@@]4(F)[C@@H](O)C[C@]3(C)[C@]2(C(=O)CNC(=O)OCc2ccc(NC(=O)[C@H](CCCNC(N)=O)NC(=O)[C@@H](NC(=O)[C@@H](CCCCNC(=O)COC3CCCCCc4c3nnn4CC3OC4OC5C(CO)OC(OC6C(CO)OC(OC7C(CO)OC(OC8C(CO)OC(OC9C(CO)OC(OC3C(O)C4O)C(O)C9O)C(O)C8O)C(O)C7O)C(O)C6O)C(O)C5O)NC(=O)CCOCCOCCOCCOCCNC(=O)CCC(=O)N3Cc4ccccc4C#Cc4ccccc43)C(C)C)cc2)O1` (stereo partly shown) [Ex59, DIBAC-suc-PEG4-dLys(COT-CD)-vcPAB-1h], the “Percent of payload released at 4 hrs” value (Human liver Cathepsin B) was 28.9%, the solubility at 10 min [2, 5] was 26 µg/mL (≈ 9.64 µM) and the solubility at 10 min [2, 6] was 26 µg/mL (≈ 9.64 µM). The solubility at 10 min ([2]; water, thermodynamic from solid, water, read-out: Solubility) was 26 µg/mL (≈ 9.64 µM), the capB (Cathepsin B) was 29% and the “CapB (%)” value (Cathepsin B) was “% (% ≤50 CapB (%))”.
In the case of `C[C@]1(C(=O)NC(=O)[C@@]2(C)CCC[C@]3(C)c4cc(O)ccc4CC[C@@H]23)CCC[C@]2(C)c3cc(N)ccc3CC[C@@H]12` [Example 1d, (1S,4aS,10aR)-N-[(1S,4aS,10aR)-6-Amino-1,4a-dimethyl-1,2,3,4,4a,9,10,10a-octahydrophenanthrene-1-carbonyl]-6-hydroxy-1,4a-dimethyl-1,2,3,4,4a,9,10,10a-octahydrophenanthrene-1-carboxamide], the EC50 (LXR) is reported as 2.8 nM and the Maximal activation (LXR; relative to free payload 1d) is reported as “Full activation”.
In the case of `CC[C@H](C)[C@@H]([C@@H](CC(=O)N1CCC[C@H]1[C@H](OC)[C@@H](C)C(=O)N[C@H](C)[C@@H](O)c1ccccc1)OC)N(C)C(=O)[C@@H](NC(=O)[C@@H](NC)C(C)C)C(C)C` [MMAE] (H-[NMeV]V[Dil][Dolaproine]-X1), the EC50 (SKBR3 cells; Homo sapiens, SK-BR-3, 120 h) is reported as 0.19 nM and the “% kill” value (SKBR3 cells; SKBR3 cells, 5 days, highest concentration tested) is reported as ≥90%.
